Assay results reported in patent US6375979B2 (Somerset Pharmaceuticals, Inc., priority 1995, dated 2002).
Where “and” joins values, the source holds several entries; their conditions need not be identical. Equal values may be shown once. Read-outs that look alike come from different tables or passages of the source.

Columns and labels:
[1] = test system: wobbler mouse; assay: Wobbler mouse model of motor neuron disease; format: in vivo; conditions: 0.1 mg/kg daily intra-peritoneal for 30 days; range in parentheses
Method: The ability of the enantiomers of DMS to prevent neurological deterioration was examined by administering the agents to the wobbler mouse, an animal model of motor neuron diseases, particularly amyotrophic lateral sclerosis (ALS).
A 0.1 mg/kg dose of R(−)DMS, S(+)DMS or placebo was administered to wobbler mice by daily intra-peritoneal injection for a period of 30 days in a randomized, double-blind study. At the end of this time mice were examined for grip strength, running time, resting locomotive activity and graded for semi-quantitative paw posture abnormalities, and semi-quantitative walking abnormalities. The investigators who prepared and administered the test drugs to the animals were different than those who analyzed behavioral changes.
Assays and grading were performed essentially as described in Mitsumoto et al., Ann. Neurol. 36:142-148 (1994). Grip strength of the front paws of a mouse was determined by allowing the animal to grasp a wire with both paws. […] The reading on the dynamometer at the point of release is taken as a measure of grip strength.
Running time is defined as the shortest time necessary to traverse a specified distance, e.g. 2.5 feet and the best time of several trials is recorded. […]
Locomotive activity is determined by transferring animals to an examination area in which the floor is covered with a square grid. […]

[2] = test system: interleukin-2 production; assay: Concanavalin A-induced interleukin-2 production by spleen cells of treated old rats; format: in vivo, rat; conditions: for IL-2 % control / IL-2 U/ml mean: ip daily 60 days
Method: The present experiments utilized a rat model to examine the ability of R(−)DMS and S(+)DMS to restore immunological function. Rats were divided into the following experimental groups:
(§1) Rats were administered saline or test agent ip, daily for 60 days. They were then maintained for an additional “wash out” period of 10 days during which time no treatment was given. At the end of this time, animals were sacrificed and their spleens were removed. The spleen cells were then assayed for a variety of factors which are indicative of immune system function. Specifically, standard tests were employed to determine the following:
2) in vitro concanavalin A-induced production of interleukin-2;

[3] = test system: γ-interferon production; assay: γ-interferon production by concanavalin A-stimulated spleen cells of treated old rats; format: in vivo, rat; conditions: for IFN-γ % control / IFN-γ U/ml mean: old rats, ip daily 60 days, 1.0 mg/kg (for DMS enantiomers)
Method: Rats were divided into the following experimental groups:
as §1
1) in vitro production of γ-interferon by concanavalin A-stimulated spleen cells;

[4] = test system: rat spleens; assay: Histological immunofluorescence of spleen innervation in old rats; format: in vivo; conditions: ip daily 60 days
Method: as §1
Histological immunofluorescence studies show a dramatic loss of innervation in rat spleens with age.

[5] = test system: cultured rat mesencephalic cells exposed to NMDA; assay: NMDA model of cell death: [3H]-dopamine uptake; conditions: 100 μM NMDA exposure
[6] = test system: cultured rat mesencephalic cells; assay: Medium change (glutamate receptor dependent) model of cell death: [3H]-dopamine uptake; conditions: for more axonal growth and terminal axonal survival compared to untreated control cells / 3H-Dopamine uptake as a percentage + SEM: 10 μM; for more axonal growth and terminal axonal survival compared to untreated control cells / 3H-Dopamine uptake as a percentage + SEM / Dopamine uptake, % control, Mean / Dopamine uptake, % control, individual cultures / Dopamine uptake, counts/min, Mean / Dopamine uptake, counts/min, individual cultures: medium change model; for 3H-Dopamine uptake as a percentage + SEM: control = 100; for neuron protection by measurement of dopamine uptake (FIG. 15): glutamate receptor dependent model
Method: Preparations are then added to 10 ml Ecoscint (National Diagnostics) and counted in a scintillation spectrometer.
In these experiments, cells were plated and allowed to stabilize for several days.

[7] = target: T1, MAO-A (Cavia porcellus, UniProt H0UVA2); assay: MAO-A inhibition in guinea pig hippocampal homogenates in vitro; format: biochemical; set-up: by human platelets and/or guinea pig hippocampal homogenates; from tissue; host or cells: guinea pig hippocampus homogenate; conditions: for reduction in potency compared to selegiline (value in parentheses): MAO-A IC50, guinea pig hippocampal cortex
T1 sequence (H0UVA2 1-461): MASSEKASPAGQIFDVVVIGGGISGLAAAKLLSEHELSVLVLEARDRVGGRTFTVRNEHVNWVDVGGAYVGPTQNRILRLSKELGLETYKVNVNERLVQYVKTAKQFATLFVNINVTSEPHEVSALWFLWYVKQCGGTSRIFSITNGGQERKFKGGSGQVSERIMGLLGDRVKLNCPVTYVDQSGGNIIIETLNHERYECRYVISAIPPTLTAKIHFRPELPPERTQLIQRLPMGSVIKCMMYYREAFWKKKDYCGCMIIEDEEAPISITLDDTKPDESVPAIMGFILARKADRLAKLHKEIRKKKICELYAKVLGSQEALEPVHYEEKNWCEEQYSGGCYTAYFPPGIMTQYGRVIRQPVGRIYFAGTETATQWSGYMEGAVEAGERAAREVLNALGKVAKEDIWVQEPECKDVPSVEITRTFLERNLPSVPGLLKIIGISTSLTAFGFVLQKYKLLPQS
From the text: Human platelet MAO is comprised exclusively of the type-B isoform of the enzyme. […] The present study also examined the two enantiomers of DMS for inhibitory activity with respect to the MAO-A and MAO-B in guinea pig hippocampal tissue. Guinea pig brain tissue is an excellent animal model for studying brain dopamine metabolism, the enzyme kinetics of the multiple forms of MAO and the inhibitory properties of novel agents that interact with these enzymes. The multiple forms of MAO in this animal species show similar kinetic properties to those found in human brain tissue. Finally, the test agents were administered to guinea pigs and the extent to which they might act as inhibitors of brain MAO in vivo was assessed.
In vitro: The test system utilized the in vitro conversion of specific substrates of MAO-A (^14C-serotonin) and MAO-B (^14C-phenylethylamine) by human platelets and/or guinea pig hippocampal homogenates. […] A percent inhibition was calculated from these values.

[8] = 1.0 mg/kg (for DMS enantiomers)

## C#CCN[C@@H](C)Cc1ccccc1 (single isomer, unassigned) [S(+)DMS, ent-desmethylselegiline]
[1]
  Mean Grip Strength (gm): 14 (7-20) gm
[2]
  IL-2 production after treatment: not enhanced
[2]; [8]
  IL-2 % control: 291%
  IL-2 U/ml mean: 57.12 U/ml
[3]; most dramatic increases at 1.0 mg/kg body weight
  γ-interferon levels in old rats after administration: restoration of γ-interferon levels
[3]
  IFN-γ % control: 261%
  IFN-γ U/ml mean: 918 U/ml
[4]
  innervation in the spleens, histological examination: did not show any effect
[5]; 0.5 μM
  Dopamine uptake, % control, Mean: 187.4%
  Dopamine uptake, % control, individual cultures: 164.2% and 179.0% and 181.6% and 242.7% and 169.2%
  Dopamine uptake, counts/min, Mean: 12658.2 counts/min
  Dopamine uptake, counts/min, individual cultures: 11096 counts/min and 12092 counts/min and 12269 counts/min and 16399 counts/min and 11435 counts/min
[5]; 5.0 μM
  Dopamine uptake, % control, Mean: 246.9%
  Dopamine uptake, % control, individual cultures: 229.9% and 300.6% and 245.4% and 235.8% and 222.8%
  Dopamine uptake, counts/min, Mean: 16681.6 counts/min
  Dopamine uptake, counts/min, individual cultures: 15535 counts/min and 20313 counts/min and 16579 counts/min and 15929 counts/min and 15052 counts/min
[5]; 50 μM
  Dopamine uptake, % control, Mean: 448.9%
  Dopamine uptake, % control, individual cultures: 371.5% and 384.0% and 422.5% and 577.9% and 488.8%
  Dopamine uptake, counts/min, Mean: 30331.2 counts/min
  Dopamine uptake, counts/min, individual cultures: 25101 counts/min and 25944 counts/min and 28545 counts/min and 39042 counts/min and 33024 counts/min
[6]
  more axonal growth and terminal axonal survival compared to untreated control cells: 134%
  3H-Dopamine uptake as a percentage + SEM: 234 ± 38.36%
[7]
  IC50: 100 µM
  reduction in potency compared to selegiline (value in parentheses): 40
[7]; 1 μM, guinea pig hippocampus, read-out: MAO-A % Inhibition x = SEM
  inhibition at 1 µM: 3.3 ± 1.5%
[7]; 3 μM, guinea pig hippocampus, read-out: MAO-A % Inhibition x = SEM
  inhibition at 3 µM: 4.3 ± 1%
[7]; 10 μM, guinea pig hippocampus, read-out: MAO-A % Inhibition x = SEM
  inhibition at 10 µM: 10.5 ± 1.47%
[7]; 100 μM, guinea pig hippocampus, read-out: MAO-A % Inhibition x = SEM
  inhibition at 100 µM: 48.4 ± 1.8%
[7]; 1 mM, guinea pig hippocampus, read-out: MAO-A % Inhibition x = SEM
  inhibition at 1000 µM: 92.7 ± 2.5%
[7]; 10 mM, guinea pig hippocampus, read-out: MAO-A % Inhibition x = SEM
  inhibition at 10000 µM: 99.6 ± 0.35%

## desmethylselegiline [R(−)DMS]
[1]
  Mean Grip Strength (gm): 20 (0-63) gm
[2]
  IL-2 production after treatment: not enhanced
[2]; [8]
  IL-2 % control: 223%
  IL-2 U/ml mean: 43.7 U/ml
[2]; […] (for R(−)DMS by group order)
  IL-2 U/ml mean: 64.54 U/ml
[2]; dose not printed in row, by group order […]
  IL-2 U/ml mean: 55.17 U/ml
[3]
  IFN-γ % control: 777%
  IFN-γ U/ml mean: 2728 U/ml
[4]
  innervation in the spleens, histological examination: significant increase in innervation
[5]; 0.5 μM
  Dopamine uptake, % control, Mean: 138.6%
  Dopamine uptake, % control, individual cultures: 167.3% and 138.9% and 132.9% and 133.6% and 120.4%
  Dopamine uptake, counts/min, Mean: 9365.2 counts/min
  Dopamine uptake, counts/min, individual cultures: 11304 counts/min and 9385 counts/min and 8976 counts/min and 9028 counts/min and 8133 counts/min
[5]; 5.0 μM
  Dopamine uptake, % control, Mean: 177.6%
  Dopamine uptake, % control, individual cultures: 163.0% and 199.9% and 169.8% and 204.0% and 151.4%
  Dopamine uptake, counts/min, Mean: 12001.8 counts/min
  Dopamine uptake, counts/min, individual cultures: 11014 counts/min and 13509 counts/min and 11471 counts/min and 13786 counts/min and 10229 counts/min
[5]; 50 μM
  Dopamine uptake, % control, Mean: 304.3%
  Dopamine uptake, % control, individual cultures: 262.1% and 341.8% and 318.7% and 259.3% and 339.9%
  Dopamine uptake, counts/min, Mean: 20562.2 counts/min
  Dopamine uptake, counts/min, individual cultures: 17708 counts/min and 23090 counts/min and 21530 counts/min and 17520 counts/min and 22963 counts/min
[6]; 0.5 μM
  Dopamine uptake, % control, Mean: 141.9%
  Dopamine uptake, % control, individual cultures: 142.3% and 152.4% and 142.6% and 130.4%
  Dopamine uptake, counts/min, Mean: 29800.75 counts/min
  Dopamine uptake, counts/min, individual cultures: 29885 counts/min and 32002 counts/min and 29934 counts/min and 27382 counts/min
[6]; 5 μM
  neuron protection by measurement of dopamine uptake (FIG. 15): neuron protection
[6]; 5.0 μM
  Dopamine uptake, % control, Mean: 153.7%
  Dopamine uptake, % control, individual cultures: 155.2% and 142.1% and 173.2% and 144.5%
  Dopamine uptake, counts/min, Mean: 32280 counts/min
  Dopamine uptake, counts/min, individual cultures: 32577 counts/min and 29831 counts/min and 36370 counts/min and 30342 counts/min
[6]
  more axonal growth and terminal axonal survival compared to untreated control cells: 40%
  3H-Dopamine uptake as a percentage + SEM: 140.82 ± 26.20%
[6]; 50 μM
  neuron protection by measurement of dopamine uptake (FIG. 15): neuron protection
  Dopamine uptake, % control, Mean: 185.5%
  Dopamine uptake, % control, individual cultures: 178.3% and 186.7% and 186.3% and 190.6%
  Dopamine uptake, counts/min, Mean: 38944.75 counts/min
  Dopamine uptake, counts/min, individual cultures: 37440 counts/min and 39200 counts/min and 39126 counts/min and 40013 counts/min
[7]; 300 nM, guinea pig hippocampus
  MAO-A % Inhibition x = SEM: 4.8 ± 2.1%
[7]; 1 μM, guinea pig hippocampus
  MAO-A % Inhibition x = SEM: 4.2 ± 1.5%
[7]; 3 μM, guinea pig hippocampus
  MAO-A % Inhibition x = SEM: 10.5 ± 2.0%
[7]; 10 μM, guinea pig hippocampus
  MAO-A % Inhibition x = SEM: 19.0 ± 1.3%
[7]; 100 μM, guinea pig hippocampus
  MAO-A % Inhibition x = SEM: 64.2 ± 1.5%
[7]; 1 mM, guinea pig hippocampus
  MAO-A % Inhibition x = SEM: 96.5 ± 1.2%
[7]
  reduction in potency compared to selegiline (value in parentheses): 20
[7]; read-out: IC50 for MAO-A in Guinea Pig Hippocampal Cortex
  IC50: 50 µM
